Source: patent US10676468B2, “N-(3-heteroarylaryl)-4-arylarylcarboxamides and analogs as hedgehog pathway inhibitors and use thereof” (IMPACT Therapeutics, Inc., priority 2012, dated 2020)
Where a name gives a salt, the structure may show the parent alone.

Tests used:
Type in all cases: cell-based, mouse
[1] = test system: Hedgehog Signaling Pathway; assay: SAG-induced differentiation of C3H10T1/2 cells into osteoblastic cells, intracellular alkaline phosphatase activity; conditions: 1 μM SAG, 5 days, alkaline phosphatase activity (OD405), read-out: IC50 values of compounds that inhibit Hh pathway
Outline: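 Mouse C3H10T1/2 cells were induced with SAG and exposed to compound (10 μM to 1 nM) for 5 days at 37 °C. Cells were lysed in 0.2% Triton, and alkaline phosphatase activity was read as OD405 over 30 min at 37 °C in pH 9.8 substrate buffer. IC50 came from a non-linear fit of background-subtracted OD405 against log concentration.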

[2] = test system: Hedgehog Signaling Pathway; assay: SHH-induced differentiation of C3H10T1/2 cells into osteoblastic cells, intracellular alkaline phosphatase activity; conditions: 10 nM SHH-N, 5 days, alkaline phosphatase activity (OD405), read-out: IC50 values of compounds that inhibit Hh pathway
Outline: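 Mouse C3H10T1/2 cells were induced with 10 nM SHH-N alongside test compound (10 μM–10 nM) for 5 days at 37 °C. Cells were lysed in 0.2% Triton, and alkaline phosphatase activity was read at OD405 over 30 min at 37 °C with the background reading subtracted. IC50 came from a nonlinear fit against log concentration.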

[3] = test system: Hedgehog Signaling Pathway; assay: Gli-Luc reporter gene cell assay in C3H10T1/2/Gli-Luc cells stimulated with Shh; conditions: 30 nM Shh, luciferase activity (RLU), read-out: IC50 values of compounds that inhibit Hh pathway
Outline: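 C3H10T1/2 cells stably carrying Gli-responsive luciferase were seeded overnight, then treated 24 h at 37 °C with compound (7-point dilution series, DMSO control) plus Shh (30 nM in added medium). Lysate luciferase RLU fitted against log concentration to derive IC50.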

[4] = Mus musculus, C3H 10T1/2, 120 h

Row | Structure (SMILES) | IC50 [1, 4] [nM] | IC50 [2, 4] [nM] | IC50 ([3]; Mus musculus, C3H 10T1/2, 24 h) [nM] | IC50 [1] [nM] | IC50 [2] [nM] | IC50 ([3]; 24 hours) [nM]
1 | C[C@@H]1CN(c2ccc(C(=O)Nc3ccc(Cl)c(-c4ncc(C5CC5)[nH]4)c3)c(Cl)c2)C[C@H](C)N1C [Example 176, N-(3-(5-cyclopropyl-1H-imidazol-2-yl)-4-chlorophenyl)-2-chloro-4-((3S,5R)-3,4,5-trimethylpiperazin-1-yl)benzamide] | 7.2 | 3.9 | 0.97 | – | – | –
2 | Cc1cc(N2C[C@@H](C)N(C)[C@@H](C)C2)ccc1C(=O)Nc1ccc(Cl)c(-c2ncc(C3CC3)[nH]2)c1 [Example 177, N-(3-(5-cyclopropyl-1H-imidazol-2-yl)-4-chlorophenyl)-2-methyl-4-((3S,5R)-3,4,5-trimethylpiperazin-1-yl)benzamide] | 23 | 1 | 0.67 | – | – | –
3 | C[C@@H]1CN(c2ccc(C(=O)Nc3ccc(Cl)c(-c4ncc(C5CC5)[nH]4)c3)c(C(F)(F)F)c2)C[C@H](C)N1C [Example 178, N-(3-(5-cyclopropyl-1H-imidazol-2-yl)-4-chlorophenyl)-2-(trifluoro-methyl)-4-((3S,5R)-3,4,5-trimethylpiperazin-1-yl)benzamide] | 26 | 0.3 | 1 | – | – | –
4 | Cc1c(C(=O)Nc2ccc(Cl)c(-c3ncc(C4CC4)[nH]3)c2)ccc(N2C[C@@H](C)N(C)[C@@H](C)C2)c1F [Example 179, N-(3-(5-cyclopropyl-1H-imidazol-2-yl)-4-chlorophenyl)-2-methyl-3-fluoro-4-((3S,5R)-3,4,5-trimethylpiperazin-1-yl)benzamide] | 21 | 0.39 | 0.43 | – | – | –
5 | C[C@@H]1CN(c2ccc(C(=O)Nc3ccc(Cl)c(-c4ncc(C5CCC5)[nH]4)c3)c(Cl)c2)C[C@H](C)N1C [Example 180, N-(3-(5-cyclobutyl-1H-imidazol-2-yl)-4-chlorophenyl)-2-chloro-4-((3S,5R)-3,4,5-trimethylpiperazin-1-yl)benzamide] | 47 | 9.9 | 2.4 | – | – | –
6 | Cc1cc(N2C[C@@H](C)N(C)[C@@H](C)C2)ccc1C(=O)Nc1ccc(Cl)c(-c2ncc(C3CCC3)[nH]2)c1 [Example 181, N-(3-(5-cyclobutyl-1H-imidazol-2-yl)-4-chlorophenyl)-2-methyl-4-((3S,5R)-3,4,5-trimethylpiperazin-1-yl)benzamide] | 70 | 19 | 3.2 | – | – | –
7 | C[C@@H]1CN(c2ccc(C(=O)Nc3ccc(Cl)c(-c4ncc(C5CCCC5)[nH]4)c3)c(Cl)c2)C[C@H](C)N1C [Example 182, N-(3-(5-cyclopentyl-1H-imidazol-2-yl)-4-chlorophenyl)-2-chloro-4-((3S,5R)-3,4,5-trimethylpiperazin-1-yl)benzamide] | 100 | 9 | 4.5 | – | – | –
8 | Cc1cc(N2C[C@@H](C)N(C)[C@@H](C)C2)ccc1C(=O)Nc1ccc(Cl)c(-c2ncc(C3CCCC3)[nH]2)c1 [Example 183, N-(3-(5-cyclopentyl-1H-imidazol-2-yl)-4-chlorophenyl)-2-methyl-4-((3S,5R)-3,4,5-trimethylpiperazin-1-yl)benzamide] | 90 | 22 | 6.6 | – | – | –
9 | C[C@@H]1CN(c2ccc(C(=O)Nc3ccc(Cl)c(-c4ncc(C5CCCCC5)[nH]4)c3)c(Cl)c2)C[C@H](C)N1C [Example 184, N-(3-(5-cyclohexyl-1H-imidazol-2-yl)-4-chlorophenyl)-2-chloro-4-((3S,5R)-3,4,5-trimethylpiperazin-1-yl)benzamide] | 184 | 28 | 10 | – | – | –
10 | Cc1cc(N2C[C@@H](C)N(C)[C@@H](C)C2)ccc1C(=O)Nc1ccc(Cl)c(-c2ncc(C3CCCCC3)[nH]2)c1 [Example 185, N-(3-(5-cyclohexyl-1H-imidazol-2-yl)-4-chlorophenyl)-2-methyl-4-((3S,5R)-3,4,5-trimethylpiperazin-1-yl)benzamide] | 169 | 6.1 | 17 | – | – | –
11 | CC(C)c1cnc(-c2cc(NC(=O)c3ccc(N4C[C@@H](C)N(C)[C@@H](C)C4)cc3Cl)ccc2Cl)[nH]1 [Example 189, N-(3-(5-isopropyl-1H-imidazol-2-yl)-4-chlorophenyl)-2-chloro-4-((3S,5R)-3,4,5-trimethylpiperazin-1-yl)benzamide Dihydrochloride] | 30 | 5.2 | 0.82 | – | – | –
12 | C[C@@H]1CN(c2ccc(C(=O)Nc3ccc(Cl)c(-c4nc5cccnc5[nH]4)c3)c(Cl)c2)C[C@H](C)N1C [Example 195, N-(3-(3H-imidazo[4,5-b]pyridin-2-yl)-4-chlorophenyl)-2-chloro-4-((3S,5R)-3,4,5-trimethylpiperazin-1-yl)benzamide] | 258 | 8.1 | 8.9 | – | – | –
13 | C[C@@H]1CN(c2ccc(C(=O)Nc3ccc(Cl)c(-c4nc5ccncc5[nH]4)c3)c(Cl)c2)C[C@H](C)N1C [Example 196, N-(3-(3H-imidazo[4,5-c]pyridin-2-yl)-4-chlorophenyl)-2-chloro-4-((3S,5R)-3,4,5-trimethylpiperazin-1-yl)benzamide] | 157 | 54 | 5.7 | – | – | –
14 | Cc1cc(N2C[C@@H](C)N(C)[C@@H](C)C2)ccc1C(=O)Nc1ccc(Cl)c(-c2nc3ccncc3[nH]2)c1 [Example 197, N-(3-(3H-imidazo[4,5-c]pyridin-2-yl)-4-chlorophenyl)-2-methyl-4-((3S,5R)-3,4,5-trimethylpiperazin-1-yl)benzamide] | 306 | 115 | 9.5 | – | – | –
15 | Cc1cc(N2C[C@@H](C)N(C)[C@@H](C)C2)ccc1C(=O)Nc1ccc(Cl)c(-c2nc3cscc3[nH]2)c1 [Example 198] | – | – | – | 26 | 0.3 | 0.29
16 | C[C@@H]1CN(c2ccc(C(=O)Nc3ccc(Cl)c(-c4nc5cscc5[nH]4)c3)c(Cl)c2)C[C@H](C)N1C [Example 199, N-(3-(1H-thieno[3,4-d]imidazol-2-yl)-4-chlorophenyl)-2-chloro-4-((3S,5R)-3,4,5-trimethylpiperazin-1-yl)benzamide] | 11 | 0.19 | 0.27 | – | – | –
17 | C[C@@H]1CN(c2ccc(C(=O)Nc3ccc(Cl)c(-c4cnc5ccccc5n4)c3)c(Cl)c2)C[C@H](C)N1C [Example 204, N-(3-(quinoxalin-2-yl)-4-chlorophenyl)-2-chloro-4-((3S,5R)-3,4,5-trimethylpiperazin-1-yl)benzamide] | 201 | 49 | 9.6 | – | – | –
18 | C[C@@H]1CN(c2ccc(C(=O)Nc3ccc(Cl)c(-c4cn5ccsc5n4)c3)c(Cl)c2)C[C@H](C)N1C [Example 205, N-(3-(imidazo[2,1-b]thiazol-6-yl)-4-chlorophenyl)-2-chloro-4-((3S,5R)-3,4,5-trimethylpiperazin-1-yl)benzamide] | 250 | 94 | 29 | – | – | –
19 | Cc1cc(N2C[C@@H](C)N(C)[C@@H](C)C2)ccc1C(=O)Nc1ccc(Cl)c(-c2nc3ccccc3o2)c1 [Example 206, N-(3-(benzo[d]oxazol-2-yl)-4-chlorophenyl)-2-methyl-4-((3S,5R)-3,4,5-trimethylpiperazin-1-yl)benzamide] | 244 | 46 | 27 | – | – | –
